{
  "source": "paper PMC5666424",
  "about": "“Marine-Derived 2-Aminoimidazolone Alkaloids. Leucettamine B-Related Polyandrocarpamines Inhibit Mammalian and Protozoan DYRK & CLK Kinases” (Marine Drugs, 2017)",
  "experiment_in_all_cases": "KinomeScan",
  "type_in_all_cases": "binding",
  "conditions_in_all_cases": "1 μM",
  "key": {"MAP4K3": {"target": "T1, MAP4K3 (Homo sapiens, UniProt Q8IVH8)", "T1 construct": "purchased DiscoverX (KINOMEscan)"}, "FLT3(R834Q)": {"target": "T2, FLT3(R834Q) (Homo sapiens, UniProt P36888, R834Q)", "T2 construct": "purchased DiscoverX (KINOMEscan)"}, "CHEK1": {"target": "T3, CHEK1 (Homo sapiens, UniProt O14757)", "T3 construct": "purchased DiscoverX (KINOMEscan)"}, "MAPKAPK2": {"target": "T4, MAPKAPK2 (Homo sapiens, UniProt P49137)", "T4 construct": "purchased DiscoverX (KINOMEscan)"}, "BMX": {"target": "T5, BMX (Homo sapiens, UniProt P51813)", "T5 construct": "purchased DiscoverX (KINOMEscan)"}, "ADCK3": {"target": "T6, ADCK3 (Homo sapiens, UniProt Q8NI60)", "T6 construct": "purchased DiscoverX (KINOMEscan)"}, "MAST1": {"target": "T7, MAST1 (Homo sapiens, UniProt Q9Y2H9)", "T7 construct": "purchased DiscoverX (KINOMEscan)"}, "AAK1": {"target": "T8, AAK1 (Homo sapiens, UniProt Q2M2I8)", "T8 construct": "purchased DiscoverX (KINOMEscan)"}, "[1]": {"target": "T9, ABL1(F317L)-nonphosphorylated (Homo sapiens, UniProt P00519, F317L)", "T9 construct": "purchased DiscoverX (KINOMEscan)"}, "CAMK1": {"target": "T10, CAMK1 (Homo sapiens, UniProt Q14012)", "T10 construct": "purchased DiscoverX (KINOMEscan)"}, "BMPR1A": {"target": "T11, BMPR1A (Homo sapiens, UniProt P36894)", "T11 construct": "purchased DiscoverX (KINOMEscan)", "T11 sequence (P36894 24-532)": "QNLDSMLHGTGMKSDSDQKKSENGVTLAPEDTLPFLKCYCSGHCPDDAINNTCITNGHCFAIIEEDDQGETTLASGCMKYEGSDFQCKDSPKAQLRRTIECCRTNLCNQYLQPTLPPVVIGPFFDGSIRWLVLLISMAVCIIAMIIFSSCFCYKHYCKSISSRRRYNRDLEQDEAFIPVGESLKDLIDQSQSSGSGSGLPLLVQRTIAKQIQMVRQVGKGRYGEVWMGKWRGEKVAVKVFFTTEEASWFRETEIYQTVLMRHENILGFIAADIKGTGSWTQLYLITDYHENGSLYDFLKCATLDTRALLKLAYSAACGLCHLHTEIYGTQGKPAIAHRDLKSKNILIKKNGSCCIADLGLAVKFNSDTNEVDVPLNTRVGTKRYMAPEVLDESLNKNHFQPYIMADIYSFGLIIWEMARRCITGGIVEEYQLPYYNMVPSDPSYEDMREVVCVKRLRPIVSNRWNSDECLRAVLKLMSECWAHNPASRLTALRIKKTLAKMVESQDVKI"}, "EPHA1": {"target": "T12, EPHA1 (Homo sapiens, UniProt P21709)", "T12 construct": "purchased DiscoverX (KINOMEscan)", "T12 sequence (P21709 26-976)": "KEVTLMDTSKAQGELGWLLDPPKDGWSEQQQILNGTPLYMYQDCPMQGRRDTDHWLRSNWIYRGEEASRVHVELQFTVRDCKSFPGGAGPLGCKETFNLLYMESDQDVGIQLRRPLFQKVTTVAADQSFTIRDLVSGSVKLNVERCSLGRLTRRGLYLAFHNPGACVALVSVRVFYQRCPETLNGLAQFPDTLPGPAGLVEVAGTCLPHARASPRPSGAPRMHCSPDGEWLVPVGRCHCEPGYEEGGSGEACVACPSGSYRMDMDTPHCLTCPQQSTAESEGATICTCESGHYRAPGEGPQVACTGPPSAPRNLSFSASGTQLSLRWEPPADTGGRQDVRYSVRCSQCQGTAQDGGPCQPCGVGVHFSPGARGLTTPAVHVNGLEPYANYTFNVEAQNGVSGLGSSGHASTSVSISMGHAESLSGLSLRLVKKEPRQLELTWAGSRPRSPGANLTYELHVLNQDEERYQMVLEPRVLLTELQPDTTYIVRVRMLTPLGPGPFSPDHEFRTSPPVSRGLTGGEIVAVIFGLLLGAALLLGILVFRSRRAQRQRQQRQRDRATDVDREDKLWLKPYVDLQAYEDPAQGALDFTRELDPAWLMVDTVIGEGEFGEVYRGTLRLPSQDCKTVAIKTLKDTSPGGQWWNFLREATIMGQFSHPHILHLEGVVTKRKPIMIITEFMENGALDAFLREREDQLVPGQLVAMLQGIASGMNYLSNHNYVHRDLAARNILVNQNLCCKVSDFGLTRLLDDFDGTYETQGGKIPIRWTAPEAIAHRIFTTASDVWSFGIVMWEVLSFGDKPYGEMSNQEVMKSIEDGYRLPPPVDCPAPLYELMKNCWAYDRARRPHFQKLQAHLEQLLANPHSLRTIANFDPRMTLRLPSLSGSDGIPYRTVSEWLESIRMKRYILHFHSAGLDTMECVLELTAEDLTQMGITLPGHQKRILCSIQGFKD"}, "ASK2": {"target": "T13, ASK2 (Homo sapiens, UniProt O95382)", "T13 construct": "purchased DiscoverX (KINOMEscan)"}, "KIT(A829P)": {"target": "T14, KIT(A829P) (Homo sapiens, UniProt P10721, A829P)", "T14 construct": "purchased DiscoverX (KINOMEscan)"}, "MELK": {"target": "T15, MELK (Homo sapiens, UniProt Q14680)", "T15 construct": "purchased DiscoverX (KINOMEscan)"}, "MST3": {"target": "T16, MST3 (Homo sapiens, UniProt Q9Y6E0)", "T16 construct": "purchased DiscoverX (KINOMEscan)"}, "MUSK": {"target": "T17, MUSK (Homo sapiens, UniProt O15146)", "T17 construct": "purchased DiscoverX (KINOMEscan)", "T17 sequence (O15146 24-869)": "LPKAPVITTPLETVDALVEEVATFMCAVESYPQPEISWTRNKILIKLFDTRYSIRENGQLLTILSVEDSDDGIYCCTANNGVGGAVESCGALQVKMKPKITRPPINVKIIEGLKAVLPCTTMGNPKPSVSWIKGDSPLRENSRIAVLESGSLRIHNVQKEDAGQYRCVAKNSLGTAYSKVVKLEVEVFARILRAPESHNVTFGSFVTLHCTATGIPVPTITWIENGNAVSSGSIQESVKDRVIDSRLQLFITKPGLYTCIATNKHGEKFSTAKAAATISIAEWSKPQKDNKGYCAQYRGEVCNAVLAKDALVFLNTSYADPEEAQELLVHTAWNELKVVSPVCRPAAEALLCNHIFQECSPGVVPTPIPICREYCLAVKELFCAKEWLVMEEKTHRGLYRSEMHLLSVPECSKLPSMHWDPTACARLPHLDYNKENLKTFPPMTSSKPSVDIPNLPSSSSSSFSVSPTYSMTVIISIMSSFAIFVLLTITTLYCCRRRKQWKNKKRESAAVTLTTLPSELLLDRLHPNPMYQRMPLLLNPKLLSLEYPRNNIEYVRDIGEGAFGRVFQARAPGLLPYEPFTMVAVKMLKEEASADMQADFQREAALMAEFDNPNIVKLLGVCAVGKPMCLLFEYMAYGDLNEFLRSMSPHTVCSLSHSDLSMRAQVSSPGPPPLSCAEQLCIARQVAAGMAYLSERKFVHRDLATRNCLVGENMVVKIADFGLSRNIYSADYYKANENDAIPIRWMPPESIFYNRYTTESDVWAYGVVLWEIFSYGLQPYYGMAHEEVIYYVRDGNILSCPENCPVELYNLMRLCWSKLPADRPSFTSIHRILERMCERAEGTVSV"}, "SRPK1": {"target": "T18, SRPK1 (Homo sapiens, UniProt Q96SB4)", "T18 construct": "purchased DiscoverX (KINOMEscan)"}, "EGFR(L861Q)": {"target": "T19, EGFR(L861Q) (Homo sapiens, UniProt P00533, L861Q)", "T19 construct": "purchased DiscoverX (KINOMEscan)", "T19 sequence (P00533 25-1210 L861Q)": "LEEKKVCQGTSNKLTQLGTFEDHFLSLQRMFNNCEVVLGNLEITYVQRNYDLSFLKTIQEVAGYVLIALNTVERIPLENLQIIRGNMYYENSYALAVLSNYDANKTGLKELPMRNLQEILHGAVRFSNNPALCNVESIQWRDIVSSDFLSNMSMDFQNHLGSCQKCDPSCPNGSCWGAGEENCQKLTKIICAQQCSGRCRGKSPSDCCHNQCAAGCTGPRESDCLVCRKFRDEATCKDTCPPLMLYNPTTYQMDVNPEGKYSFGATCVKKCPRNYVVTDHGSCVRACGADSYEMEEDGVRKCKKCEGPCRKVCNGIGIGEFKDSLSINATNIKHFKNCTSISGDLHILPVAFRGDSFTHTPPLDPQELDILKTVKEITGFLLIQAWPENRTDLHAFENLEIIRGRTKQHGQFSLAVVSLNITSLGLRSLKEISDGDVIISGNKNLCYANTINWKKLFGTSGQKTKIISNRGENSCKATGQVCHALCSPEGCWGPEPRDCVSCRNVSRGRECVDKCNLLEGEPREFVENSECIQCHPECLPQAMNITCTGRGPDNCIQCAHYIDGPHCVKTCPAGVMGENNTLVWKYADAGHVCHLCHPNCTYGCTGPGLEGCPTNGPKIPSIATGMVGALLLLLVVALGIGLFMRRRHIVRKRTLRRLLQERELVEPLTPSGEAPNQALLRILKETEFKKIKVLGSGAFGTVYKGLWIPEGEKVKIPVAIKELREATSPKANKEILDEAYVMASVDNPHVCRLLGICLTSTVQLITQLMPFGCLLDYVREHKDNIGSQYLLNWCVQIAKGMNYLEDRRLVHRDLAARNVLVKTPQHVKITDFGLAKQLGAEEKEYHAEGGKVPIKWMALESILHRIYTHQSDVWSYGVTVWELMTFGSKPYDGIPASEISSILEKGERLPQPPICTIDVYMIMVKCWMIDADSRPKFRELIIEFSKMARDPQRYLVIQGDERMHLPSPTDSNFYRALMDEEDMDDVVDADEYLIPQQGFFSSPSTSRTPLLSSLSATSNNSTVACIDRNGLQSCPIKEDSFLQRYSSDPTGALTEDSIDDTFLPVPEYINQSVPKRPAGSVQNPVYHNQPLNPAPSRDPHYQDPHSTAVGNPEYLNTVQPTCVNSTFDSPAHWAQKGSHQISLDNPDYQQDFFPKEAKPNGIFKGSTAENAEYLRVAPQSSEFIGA"}, "ULK3": {"target": "T20, ULK3 (Homo sapiens, UniProt Q6PHR2)", "T20 construct": "purchased DiscoverX (KINOMEscan)"}, "ACVR1B": {"target": "T21, ACVR1B (Homo sapiens, UniProt P36896)", "T21 construct": "purchased DiscoverX (KINOMEscan)"}, "FLT3(N841I)": {"target": "T22, FLT3(N841I) (Homo sapiens, UniProt P36888, N841I)", "T22 construct": "purchased DiscoverX (KINOMEscan)"}, "ERK1": {"target": "T23, ERK1 (Homo sapiens, UniProt P27361)", "T23 construct": "purchased DiscoverX (KINOMEscan)"}, "MTOR": {"target": "T24, MTOR (Homo sapiens, UniProt P42345)", "T24 construct": "purchased DiscoverX (KINOMEscan)"}, "YANK3": {"target": "T25, YANK3 (Homo sapiens, UniProt Q86UX6)", "T25 construct": "purchased DiscoverX (KINOMEscan)"}, "ADCK4": {"target": "T26, ADCK4 (Homo sapiens, UniProt Q96D53)", "T26 construct": "purchased DiscoverX (KINOMEscan)"}, "LOK": {"target": "T27, LOK (Homo sapiens, UniProt O94804)", "T27 construct": "purchased DiscoverX (KINOMEscan)"}, "ZAP70": {"target": "T28, ZAP70 (Homo sapiens, UniProt P43403)", "T28 construct": "purchased DiscoverX (KINOMEscan)"}, "TESK1": {"target": "T29, TESK1 (Homo sapiens, UniProt Q15569)", "T29 construct": "purchased DiscoverX (KINOMEscan)"}, "ASK1": {"target": "T30, ASK1 (Homo sapiens, UniProt Q99683)", "T30 construct": "purchased DiscoverX (KINOMEscan)"}, "TRKB": {"target": "T31, TRKB (Homo sapiens, UniProt Q16620)", "T31 construct": "purchased DiscoverX (KINOMEscan)"}, "IGF1R": {"target": "T32, IGF1R (Homo sapiens, UniProt P08069)", "T32 construct": "purchased DiscoverX (KINOMEscan)", "T32 sequence (P08069 31-1367)": "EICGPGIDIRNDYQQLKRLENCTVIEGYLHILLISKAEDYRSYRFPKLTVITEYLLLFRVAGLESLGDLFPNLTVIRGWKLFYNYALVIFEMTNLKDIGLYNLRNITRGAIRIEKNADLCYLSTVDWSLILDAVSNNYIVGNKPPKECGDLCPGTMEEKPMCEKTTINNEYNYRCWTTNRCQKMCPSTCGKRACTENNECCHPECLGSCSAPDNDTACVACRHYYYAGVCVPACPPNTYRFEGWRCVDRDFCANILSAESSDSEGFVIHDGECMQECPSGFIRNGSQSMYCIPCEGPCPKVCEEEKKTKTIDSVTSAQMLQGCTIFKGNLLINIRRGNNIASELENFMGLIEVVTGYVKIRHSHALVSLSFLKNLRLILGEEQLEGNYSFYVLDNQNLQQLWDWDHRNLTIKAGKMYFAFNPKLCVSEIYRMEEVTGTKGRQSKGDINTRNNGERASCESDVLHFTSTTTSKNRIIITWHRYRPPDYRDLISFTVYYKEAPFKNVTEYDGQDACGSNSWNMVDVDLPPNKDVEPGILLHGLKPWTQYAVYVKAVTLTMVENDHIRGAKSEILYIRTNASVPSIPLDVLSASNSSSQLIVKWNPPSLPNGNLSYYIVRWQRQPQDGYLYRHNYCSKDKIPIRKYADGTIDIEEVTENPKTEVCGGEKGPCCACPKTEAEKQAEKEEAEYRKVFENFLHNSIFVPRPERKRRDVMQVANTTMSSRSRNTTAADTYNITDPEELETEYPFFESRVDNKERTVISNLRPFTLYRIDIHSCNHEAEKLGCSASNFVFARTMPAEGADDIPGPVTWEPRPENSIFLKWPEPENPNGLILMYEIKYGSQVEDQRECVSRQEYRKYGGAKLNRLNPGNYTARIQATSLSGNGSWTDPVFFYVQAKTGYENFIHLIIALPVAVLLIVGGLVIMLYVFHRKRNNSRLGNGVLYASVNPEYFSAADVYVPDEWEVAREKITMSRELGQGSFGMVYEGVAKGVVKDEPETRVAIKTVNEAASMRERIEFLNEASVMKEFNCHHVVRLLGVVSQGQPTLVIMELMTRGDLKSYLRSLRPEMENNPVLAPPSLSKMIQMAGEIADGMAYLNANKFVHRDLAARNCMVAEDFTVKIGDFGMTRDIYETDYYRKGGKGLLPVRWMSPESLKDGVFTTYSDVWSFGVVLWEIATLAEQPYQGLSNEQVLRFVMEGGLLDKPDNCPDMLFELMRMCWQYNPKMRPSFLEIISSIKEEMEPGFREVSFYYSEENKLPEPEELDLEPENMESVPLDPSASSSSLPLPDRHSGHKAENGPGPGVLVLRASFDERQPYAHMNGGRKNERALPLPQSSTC"}, "KIT": {"target": "T33, KIT (Homo sapiens, UniProt P10721)", "T33 construct": "purchased DiscoverX (KINOMEscan)"}, "EGFR(S752-I759del)": {"target": "T34, EGFR(S752-I759del) (Homo sapiens, UniProt P00533, DEL752-759)", "T34 construct": "purchased DiscoverX (KINOMEscan)"}, "LTK": {"target": "T35, LTK (Homo sapiens, UniProt P29376)", "T35 construct": "purchased DiscoverX (KINOMEscan)"}, "MET(Y1235D)": {"target": "T36, MET(Y1235D) (Homo sapiens, UniProt P08581, Y1235D)", "T36 construct": "purchased DiscoverX (KINOMEscan)"}, "CDK5": {"target": "T37, CDK5 (Homo sapiens, UniProt Q00535)", "T37 construct": "purchased DiscoverX (KINOMEscan)"}},
  "data": [
    {"smiles": "COc1cc(/C=C2\\N=C(N)NC2=O)ccc1O", "note": "[Polyandrocarpamine A]", "values": [
      {"measurement": "Score", "setting": "MAP4K3", "value": 78},
      {"measurement": "Score", "setting": "FLT3(R834Q)", "value": 100},
      {"measurement": "Score", "setting": "CHEK1", "value": 100},
      {"measurement": "Score", "setting": "MAPKAPK2", "value": 100},
      {"measurement": "Score", "setting": "BMX", "value": 100},
      {"measurement": "Score", "setting": "ADCK3", "value": 100},
      {"measurement": "Score", "setting": "MAST1", "value": 100},
      {"measurement": "Score", "setting": "AAK1", "value": 100},
      {"measurement": "Score", "setting": "[1]", "value": 100},
      {"measurement": "Score", "setting": "CAMK1", "value": 100},
      {"measurement": "Score", "setting": "BMPR1A", "value": 100},
      {"measurement": "Score", "setting": "EPHA1", "value": 100},
      {"measurement": "Score", "setting": "ASK2", "value": 100},
      {"measurement": "Score", "setting": "KIT(A829P)", "value": 91},
      {"measurement": "Score", "setting": "MELK", "value": 100},
      {"measurement": "Score", "setting": "MST3", "value": 100},
      {"measurement": "Score", "setting": "MUSK", "value": 56},
      {"measurement": "Score", "setting": "SRPK1", "value": 100},
      {"measurement": "Score", "setting": "EGFR(L861Q)", "value": 100},
      {"measurement": "Score", "setting": "ULK3", "value": 100},
      {"measurement": "Score", "setting": "ACVR1B", "value": 81},
      {"measurement": "Score", "setting": "FLT3(N841I)", "value": 100},
      {"measurement": "Score", "setting": "ERK1", "value": 100},
      {"measurement": "Score", "setting": "MTOR", "value": 84},
      {"measurement": "Score", "setting": "YANK3", "value": 100},
      {"measurement": "Score", "setting": "ADCK4", "value": 98},
      {"measurement": "Score", "setting": "LOK", "value": 100},
      {"measurement": "Score", "setting": "ZAP70", "value": 100},
      {"measurement": "Score", "setting": "TESK1", "value": 100},
      {"measurement": "Score", "setting": "ASK1", "value": 100},
      {"measurement": "Score", "setting": "TRKB", "value": 100},
      {"measurement": "Score", "setting": "IGF1R", "value": 100},
      {"measurement": "Score", "setting": "KIT", "value": 87},
      {"measurement": "Score", "setting": "EGFR(S752-I759del)", "value": 100},
      {"measurement": "Score", "setting": "LTK", "value": 100},
      {"measurement": "Score", "setting": "MET(Y1235D)", "value": 100},
      {"measurement": "Score", "setting": "CDK5", "value": 100}
    ]}
  ]
}
